These compounds were tested against T1, human NK3 receptor (Homo sapiens, UniProt P29371) (assay: [3H]SR142801 competition binding assay (hNK3 receptor binding)). Conditions: [3H]SR142801 radioligand; membranes from HEK293 cells transiently expressing recombinant human NK3 receptor; Ki by Cheng-Prussoff; read-out: KiNK3 h.
T1 construct: expressed in transfected cells; host or cells: HEK293 cells (transient expression), membrane preparation
T1 sequence (P29371 1-465): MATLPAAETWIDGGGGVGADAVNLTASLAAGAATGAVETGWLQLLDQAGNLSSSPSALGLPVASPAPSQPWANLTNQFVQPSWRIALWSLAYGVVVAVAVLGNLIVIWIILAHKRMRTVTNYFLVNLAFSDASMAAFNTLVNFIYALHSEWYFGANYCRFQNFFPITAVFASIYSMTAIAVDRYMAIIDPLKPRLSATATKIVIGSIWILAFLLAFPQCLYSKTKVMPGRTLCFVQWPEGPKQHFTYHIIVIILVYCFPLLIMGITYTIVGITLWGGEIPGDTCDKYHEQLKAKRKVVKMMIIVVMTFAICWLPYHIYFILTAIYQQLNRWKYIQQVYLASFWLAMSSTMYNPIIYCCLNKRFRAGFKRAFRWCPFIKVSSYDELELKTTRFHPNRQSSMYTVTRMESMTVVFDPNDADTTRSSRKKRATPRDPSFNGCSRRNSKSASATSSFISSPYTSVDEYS
Procedure: [^3H]SR^142801 Competition Binding Assay
hNK3 receptor binding experiment were performed using [^3H]SR^142801 (Catalog No. TRK1035, specific activity: 74.0 Ci/mmol, Amersham, GE Healthcare UK limited, Buckinghamshire, UK) and membrane isolated from HEK293 cells transiently expressing recombinant human NK3 receptor. After thawing, the membrane homogenates were centrifuged at 48,000×g for 10 min at 4° C., the pellets were resuspended in the 50 mM Tris-HCl, 4 mM MnCl2, 1 μM phosphoramidon, 0.1% BSA binding buffer at pH 7.4 to a final assay concentration of 5 μg protein/well. […] At the end of the incubation, membranes were filtered onto unitfilter (96-well white microplate with bonded GF/C filter preincubated 1 h in 0.3% PEI +0.3% BSA, Packard BioScience, Meriden, Conn.) with a Filtermate 196 harvester (Packard BioScience) and washed 4 times with ice-cold 50 mM Tris-HCl, pH 7.4 buffer. Nonspecific binding was measured in the presence of 10 μM SB222200 for both radioligands. The radioactivity on the filter was counted (5 min) on a Packard Top-count microplate scintillation counter with quenching correction after addition of 45 μl of microscint 40 (Canberra Packard S.A., Zutrich, Switzerland) and shaking for 1 h. Inhibition curves were fitted according to the Hill equation: y=100/(1+(x/IC50)^nH), where nH=slope factor using Excel-fit 4 software (Microsoft). IC50 values were derived from the inhibition curve and the affinity constant (Ki) values were calculated using the Cheng-Prussoff equation Ki=IC50/(1+[L]/KD) where [L] is the concentration of radioligand and KD is its dissociation constant at the receptor, derived from the saturation isotherm. All experiments were performed in duplicate and the mean ± standard error (SEM) of the individual Ki values was calculated.
`Cc1ncc(C(=O)N2C[C@@H]([C@@H](C)Oc3ccc(Cl)cn3)[C@@H](c3ccc(Cl)c(Cl)c3)C2)c(C)n1` (racemic) [Example 37] gave a Ki of 0.0316 µM.
Compound `CC(=O)Nc1ccc(C(=O)N2C[C@@H]([C@@H](C)Oc3ccc(Cl)cn3)[C@@H](c3ccc(Cl)c(Cl)c3)C2)cn1` (racemic) [Example 38] has a Ki of 0.0156 µM.
`C[C@@H](Oc1ccc(Cl)cn1)[C@@H]1CN(C(=O)c2ccc(CN(C)C)nc2)C[C@H]1c1ccc(Cl)c(Cl)c1` (racemic) [Example 39, [(3SR,4RS)-3-[(RS)-1-(5-Chloro-pyridin-2-yloxy)-ethyl]-4-(3,4-dichloro-phenyl)-pyrrolidin-1-yl]-(6-dimethylaminomethyl-pyridin-3-yl)-methanone] gave a Ki of 0.0093 µM.
With `C[C@@H](Oc1ccc(Cl)cn1)[C@@H]1CN(C(=O)c2ccc(CN(C)C)cc2)C[C@H]1c1ccc(Cl)c(Cl)c1` (racemic) [Example 42, [(3SR,4RS)-3-[(RS)-1-(5-Chloro-pyridin-2-yloxy)-ethyl]-4-(3,4-dichloro-phenyl)-pyrrolidin-1-yl]-(4-dimethylaminomethyl-phenyl)-methanone] the Ki was 0.0255 µM.
Work on `C[C@H](Oc1ccc(C#N)cn1)[C@H]1CN(C(=O)c2ccc(CN(C)C)nc2)C[C@@H]1c1ccc(Cl)c(Cl)c1` (racemic) [Example 43, 6-{(SR)-1-[(3RS,4SR)-4-(3,4-Dichloro-phenyl)-1-(6-dimethylaminomethyl-pyridine-3-carbonyl)-pyrrolidin-3-yl]-ethoxy}-nicotinonitrile] yielded a Ki of 0.0246 µM.
With `CSc1ccc(C(=O)N2C[C@@H]([C@@H](C)Oc3ccc(Cl)cn3)[C@H](c3ccc(Cl)c(Cl)c3)C2)cn1` (racemic) [Example 45, [(3SR,4RS)-3-[(RS)-1-(5-Chloro-pyridin-2-yloxy)-ethyl]-4-(3,4-dichloro-phenyl)-pyrrolidin-1-yl]-(6-methylsulfanyl-pyridin-3-yl)-methanone] the Ki was 0.0073 µM.
`C[C@@H](Oc1ccc(Cl)cn1)[C@@H]1CN(C(=O)c2ccc(CCN3CCCC3)nc2)C[C@H]1c1ccc(Cl)c(Cl)c1` (racemic) [Example 46, [(3SR,4RS)-3-[(RS)-1-(5-Chloro-pyridin-2-yloxy)-ethyl]-4-(3,4-dichloro-phenyl)-pyrrolidin-1-yl]-[6-(2-pyrrolidin-1-yl-ethyl)-pyridin-3-yl]-methanone] showed a Ki of 0.0019 µM.
Work on `C[C@@H](Oc1ccc(Cl)cn1)[C@@H]1CN(C(=O)c2ccc(S(C)(=O)=O)nc2)C[C@H]1c1ccc(Cl)c(Cl)c1` (racemic) [Example 47, [(3SR,4RS)-3-[(RS)-1-(5-Chloro-pyridin-2-yloxy)-ethyl]-4-(3,4-dichloro-phenyl)-pyrrolidin-1-yl]-(6-methanesulfonyl-pyridin-3-yl)-methanone] yielded a Ki of 0.0125 µM.
`CSc1ncc(C(=O)N2C[C@@H]([C@@H](C)Oc3ccc(Cl)cn3)[C@H](c3ccc(Cl)c(Cl)c3)C2)cn1` (racemic) [Example 48, [(3SR,4RS)-3-[(RS)-1-(5-Chloro-pyridin-2-yloxy)-ethyl]-4-(3,4-dichloro-phenyl)-pyrrolidin-1-yl]-(2-methylsulfanyl-pyrimidin-5-yl)-methanone] showed a Ki of 0.0426 µM.
`C[C@@H](Oc1ccc(Cl)cn1)[C@@H]1CN(C(=O)c2ccc(C#N)cc2)C[C@H]1c1ccc(Cl)c(Cl)c1` (racemic) [Example 49, 4-[(3SR,4RS)-3-[(RS)-1-(5-Chloro-pyridin-2-yloxy)-ethyl]-4-(3,4-dichloro-phenyl)-pyrrolidin-1-carbonyl]-benzonitrile] gave a Ki of 0.0223 µM.
In the case of `C[C@@H](Oc1ccc(Cl)cn1)[C@@H]1CN(C(=O)c2cnc(S(C)(=O)=O)nc2)C[C@H]1c1ccc(Cl)c(Cl)c1` (racemic) [Example 51, [(3SR,4RS)-3-[(RS)-1-(5-Chloro-pyridin-2-yloxy)-ethyl]-4-(3,4-dichloro-phenyl)-pyrrolidin-1-yl]-(2-methanesulfonyl-pyrimidin-5-yl)-methanone], the Ki is reported as 0.0787 µM.
For `C[C@H](Oc1ccc(C#N)cn1)[C@H]1CN(C(=O)c2ccc(C#N)nc2)C[C@@H]1c1ccc(Cl)c(Cl)c1` (racemic) [Example 52, 6-{(SR)-1-[(3RS,4SR)-4-(3,4-Dichloro-phenyl)-1-(6-cyano-pyridine-3-carbonyl)-pyrrolidin-3-yl]-ethoxy}-nicotinonitrile], the Ki was 0.0054 µM.
`C[C@H](Oc1ccc(C(F)(F)F)cn1)[C@H]1CN(C(=O)c2ccc(C#N)cc2)C[C@@H]1c1ccc(Cl)c(Cl)c1` (racemic) [Example 55, 4-{(3SR,4RS)-3-(3,4-Dichloro-phenyl)-4-[(SR)-1-(5-trifluoromethyl-pyridin-2-yloxy)-ethyl]-pyrrolidine-1-carbonyl}-benzonitrile] showed a Ki of 0.0065 µM.
`C[C@H](Oc1ccc(C(F)(F)F)cn1)[C@H]1CN(C(=O)c2ccc(C#N)nc2)C[C@@H]1c1ccc(Cl)c(Cl)c1` (racemic) [Example 56, 5-{(3SR,4RS)-3-(3,4-Dichloro-phenyl)-4-[(SR)-1-(5-trifluoromethyl-pyridin-2-yloxy)-ethyl]-pyrrolidine-1-carbonyl}-pyridine-2-carbonitrile] showed a Ki of 0.0043 µM.
Compound `Cc1ncc(C(=O)N2C[C@H]([C@H](C)Oc3ccc(C#N)cn3)[C@@H](c3ccc(Cl)c(Cl)c3)C2)cn1` (racemic) [Example 57, 6-{(SR)-1-[(3RS,4SR)-4-(3,4-Dichloro-phenyl)-1-(2-methyl-pyrimidine-5-carbonyl)-pyrrolidin-3-yl]-ethoxy}-nicotinonitrile] has a Ki of 0.0234 µM.
Compound `C[C@H](Oc1ccc(C#N)cn1)[C@H]1CN(C(=O)c2ccc(S(=O)(=O)N(C)C)nc2)C[C@@H]1c1ccc(Cl)c(Cl)c1` (racemic) [Example 58, 5-[(3RS,4SR)-3-[(SR)-1-(5-Cyano-pyridin-2-yloxy)-ethyl]-4-(3,4-dichloro-phenyl)-pyrrolidine-1-carbonyl]-pyridine-2-sulfonic acid dimethylamide] has a Ki of 0.0005 µM.
In the case of `C[C@H](Oc1ccc(C#N)cn1)[C@H]1CN(C(=O)c2ccc(-c3cnco3)cc2)C[C@@H]1c1ccc(Cl)c(Cl)c1` (racemic) [Example 59, 6-{(SR)-1-[(3RS,4SR)-4-(3,4-Dichloro-phenyl)-1-(4-oxazol-5-yl-benzoyl)-pyrrolidin-3-yl]-ethoxy}-nicotinonitrile], the Ki is reported as 0.0021 µM.
For `Cc1noc(-c2ccc(C(=O)N3C[C@H]([C@H](C)Oc4ccc(C#N)cn4)[C@@H](c4ccc(Cl)c(Cl)c4)C3)cc2)n1` (racemic) [Example 60, 6-((SR)-1-{(3RS,4SR)-4-(3,4-Dichloro-phenyl)-1-[4-(3-methyl-[1,2,4]oxadiazol-5-yl)-benzoyl]-pyrrolidin-3-yl}-ethoxy)-nicotinonitrile], the Ki was 0.0011 µM.
In the case of `Cc1nc(-c2ccc(C(=O)N3C[C@H]([C@H](C)Oc4ccc(C#N)cn4)[C@@H](c4ccc(Cl)c(Cl)c4)C3)cc2)no1` (racemic) [Example 61, 6-((SR)-1-{(3RS,4SR)-4-(3,4-Dichloro-phenyl)-1-[4-(5-methyl-[1,2,4]oxadiazol-3-yl)-benzoyl]-pyrrolidin-3-yl}-ethoxy)-nicotinonitrile], the Ki is reported as 0.0014 µM.
`CCc1noc(-c2ccc(C(=O)N3C[C@H]([C@H](C)Oc4ccc(C#N)cn4)[C@@H](c4ccc(Cl)c(Cl)c4)C3)cc2)n1` (racemic) [Example 62, 6-((SR)-1-{(3RS,4SR)-4-(3,4-Dichloro-phenyl)-1-[4-(3-ethyl-[1,2,4]oxadiazol-5-yl)-benzoyl]-pyrrolidin-3-yl}-ethoxy)-nicotinonitrile] was tested, and the Ki was 0.0594 µM.
For `C[C@H](Oc1ccc(C#N)cn1)[C@H]1CN(C(=O)c2ccc(-c3nnco3)cc2)C[C@@H]1c1ccc(Cl)c(Cl)c1` (racemic) [Example 63, 6-{(SR)-1[-(3RS,4SR)-4-(3,4-Dichloro-phenyl)-1-(4-[1,3,4]oxadiazol-2-yl-benzoyl)-pyrrolidin-3-yl]-ethoxy}-nicotinonitrile], the Ki was 0.0021 µM.
Work on `Cc1nccn1-c1ccc(C(=O)N2C[C@H]([C@H](C)Oc3ccc(C#N)cn3)[C@@H](c3ccc(Cl)c(Cl)c3)C2)cc1` (racemic) [Example 64, 6-((SR)-1-{(3RS,4SR)-4-(3,4-Dichloro-phenyl)-1-[4-(2-methyl-imidazol-1-yl)-benzoyl]-pyrrolidin-3-yl}-ethoxy)-nicotinonitrile] yielded a Ki of 0.0357 µM.
